Reference: US11311524B2, “Pharmaceutical composition used for treatment of HTLV-1-associated myelopathy” (DAIICHI SANKYO COMPANY, LIMITED, priority 2017, dated 2022)

What was measured:
EZH1 = EZH1 (Homo sapiens, UniProt Q92800); details: from WO2015/141616; cited from earlier work
HCT-4 cells = test: Proliferation/viability of HTLV-1 infected cell line HCT-4 (CCK-8); assay type: cell-based, human; details: for Viability of HTLV-1 infected cells vs DMSO group: HCT-4, 1 μM, up to 21 days culture; for GI50: Homo sapiens, 336 h, 14 days culture, CCK-8
Procedure: HCT-4 and HCT-5, which were HTLV-1 infected cell lines established from the cerebrospinal fluid of HAM patients, were donated from a professor, Tatsufumi Nakamura of the Nagasaki International University. HCT-4 was cultured in RPMI1640 culture medium containing 10% FBS (GIBCO), a 1% penicillin-streptomycin solution (Wako) and 100 U/mL IL-2 (Cell Science & Technology Institute, Inc.); whereas HCT-5 was cultured by using 10% FBS, 1% penicillin-streptomycin solution, 1% L-glutamine (SIGMA) and 200 U/mL IL-2. HCT-4 (3×10^6 cells) or HCT-5 (2.5×10^6 cells) were seeded in a culture medium (20 mL) in a 75 cm^2-culture flask. DMSO was added and compound A or B was added so as to provide a final concentration of 1 μM and culture was carried out at 37° C. in 5% CO2 conditions for 21 days while repeating subculture. In the subculture, a culture solution containing HCT-4 treated with DMSO so as to correspond to 3×10^6 cells, whereas a culture solution containing HCT-5 treated with DMSO so as to correspond to 2.5×10^6 cells were taken and each added to a new culture medium to obtain a final volume of 20 mL, and then, further compound A or B was added so as to obtain the same concentration as above. Day 7, 14 and 21 after initiation of culture, cells were recovered from the culture solution and the density of the cells was measured. In this manner, the effect of compound A or B on cell proliferation was examined. The density of cells was determined by seeding cultured cells in a 96-well plate in a volume of 100 μL per well, adding 10 μL of Cell counting kit-8 (CCK-8) (Dojindo Laboratories laboratory) per well, incubating the cells at 37° C. for 3 hours and measuring absorbance at 450 nm by a plate reader (iMark Microplate Reader, Biorad). The proliferation rates of cell groups treated with compound A or compound B were each calculated based on the cell group treated with DMSO as a control. Next, in a 6-well plate, HCT-4 (4.5×10^5 cells) or HCT-5 (3.75×10^5 cells) were seeded. A solution of compound A or B prepared with DMSO was serially diluted (4-fold dilution from 10000 nM was serially repeated 8 times) and added thereto. The cells were repeatedly subcultured at intervals of 3 to 4 days in a culture solution of 3 mL in total at 37° C. in 5% CO2 condition for 14 days. […] The cells cultured for 14 days in individual conditions were recovered and the density of the cells were measured. […] The density of cells was determined by seeding the cultured cells (100 μL) per well in a 96-well plate, adding 10 μL of CCK-8 per well, incubating the cells at 37° C. for 3 hours and measuring absorbance at 450 nm by a plate reader. The proliferation rate of a group treated with compound A or compound B was calculated based on the group treated with DMSO as a control.

HAM patient-derived PBMC = test: IL-10 and other cytokine release from HAM patient-derived PBMC (Cytokine Beads Array); assay type: cell-based, human; details: PBMC of 8 HAM patients, 12 days culture, 1-1000 nM, relative to DMSO
Procedure: PBMC taken from 8 HAM patients were suspended in a culture medium (RPMI1640 culture medium containing 10% FBS), seeded in a 48-well plate in a ratio of 5×10^5 cells per well and a compound A or compound B was added so as to provide a final concentration of 1, 10, 100 or 1000 nM. The culture solution of 0.5 mL in total was cultured at 37° C. in 5% CO2 conditions for 12 days. A group treated with DMSO and a group treated with PSL (1 μg/mL) were used as controls. Day 12 after initiation of the culture, the culture solution was centrifuged, and thereafter, the culture supernatant alone was recovered. The concentration of IL-10 in the culture supernatant was determined by use of the Cytokine Beads Array kit (BD Biosciences) and a flow cytometer FACSCantoII (BD Biosciences) (Yamauchi et al., J Infect Dis. 2015, 211 (2): 238-48). Based on the IL-10 concentration in the culture solution of the DMSO treatment group as 100%, changes in IL-10 concentration of culture solutions of groups treated with compound A and compound B different in concentration or a group treated with PSL (1 μg/mL) were compared. The significance test was carried out by using the Friedman test of GraphPad Prism6 (MDF).

[1] = tested on: HTLV-1 infected cells in HAM patient's PBMC; test: HTLV-1 pro-viral load (infected cell rate) in HAM patient-derived PBMC by real time PCR; assay type: cell-based, human; details: 12 days culture; for Reduction in HTLV-1 pro-viral load: 1000 nM, average of all HAM patients; for Cases in which HTLV-1 pro-viral load in HAM patient's PBMC decreases: PBMC of 8 HAM patients
Procedure: PBMC taken from 8 HAM patients were suspended in a culture medium (RPMI1640 culture medium containing 10% FBS) and seeded in a 48-well plate in a ratio of 5×10^5 cells per well, and compound A or compound B was added so as to provide a final concentration of 1, 10, 100 or 1000 nM. The culture solution of 0.5 mL in total was cultured at 37° C. in 5% CO2 conditions for 12 days. A group treated with DMSO and a group treated with PSL (1 μg/mL) were used as controls. Day 12 after initiation of culture, the culture solution was centrifuged, and thereafter, the cell suspension was recovered from each of the cultures carried out under different conditions and centrifuged. After the supernatant was removed, the cell pellet was subjected to genomic DNA extraction. The genome DNA extracted was subjected to real time PCR to measure HTLV-1 pro-viral load (infected cell rate) (Yamano et al., Blood. 2002, 99 (1): 88-94). Based on the HTLV-1 pro-viral load in cells, which were obtained by adding DMSO to each of the HAM patient's PBMC and culturing the PBMC, as 100%, the relative value of HTLV-1 pro-viral load in a group treated with compound A, compound B or PSL was calculated, and then, an average value of 8 HAM patient cases was obtained. The significance test was carried out by using the Friedman test of GraphPad Prism6 (MDF).

Sequence of EZH1 (Q92800 whole entry): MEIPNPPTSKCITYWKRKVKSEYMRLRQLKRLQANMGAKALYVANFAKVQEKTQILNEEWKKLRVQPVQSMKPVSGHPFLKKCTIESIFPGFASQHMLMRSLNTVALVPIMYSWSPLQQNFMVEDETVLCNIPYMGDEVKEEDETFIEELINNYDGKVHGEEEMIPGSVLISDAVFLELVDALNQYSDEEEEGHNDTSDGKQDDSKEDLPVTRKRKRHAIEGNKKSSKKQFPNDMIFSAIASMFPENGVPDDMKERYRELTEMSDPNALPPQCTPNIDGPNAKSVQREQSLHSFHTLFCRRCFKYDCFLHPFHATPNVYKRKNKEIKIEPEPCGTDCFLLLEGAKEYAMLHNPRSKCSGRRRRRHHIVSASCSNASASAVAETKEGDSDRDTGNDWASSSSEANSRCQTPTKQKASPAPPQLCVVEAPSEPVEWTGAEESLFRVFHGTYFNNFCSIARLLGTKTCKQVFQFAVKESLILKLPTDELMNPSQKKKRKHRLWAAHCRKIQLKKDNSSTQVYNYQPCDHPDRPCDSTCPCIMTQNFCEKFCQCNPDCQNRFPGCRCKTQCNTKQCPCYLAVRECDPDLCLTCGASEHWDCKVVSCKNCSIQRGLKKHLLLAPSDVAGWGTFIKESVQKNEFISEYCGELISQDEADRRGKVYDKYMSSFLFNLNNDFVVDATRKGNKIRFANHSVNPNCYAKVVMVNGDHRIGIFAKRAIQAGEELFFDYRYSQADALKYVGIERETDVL
Sequence of EZH1 (O75530 whole entry partner): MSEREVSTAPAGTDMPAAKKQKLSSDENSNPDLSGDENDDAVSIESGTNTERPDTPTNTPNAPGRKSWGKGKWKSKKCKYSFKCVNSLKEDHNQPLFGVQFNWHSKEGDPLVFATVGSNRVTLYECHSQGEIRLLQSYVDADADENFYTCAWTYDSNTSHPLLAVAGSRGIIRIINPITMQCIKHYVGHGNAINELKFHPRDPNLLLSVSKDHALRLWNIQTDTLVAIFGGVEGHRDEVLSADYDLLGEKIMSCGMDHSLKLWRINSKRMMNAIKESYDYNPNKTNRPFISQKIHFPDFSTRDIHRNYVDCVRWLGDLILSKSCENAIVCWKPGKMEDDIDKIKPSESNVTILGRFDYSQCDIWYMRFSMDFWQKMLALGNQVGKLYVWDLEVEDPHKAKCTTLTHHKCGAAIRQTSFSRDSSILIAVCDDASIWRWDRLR
Sequence of EZH1 (Q15022 whole entry partner): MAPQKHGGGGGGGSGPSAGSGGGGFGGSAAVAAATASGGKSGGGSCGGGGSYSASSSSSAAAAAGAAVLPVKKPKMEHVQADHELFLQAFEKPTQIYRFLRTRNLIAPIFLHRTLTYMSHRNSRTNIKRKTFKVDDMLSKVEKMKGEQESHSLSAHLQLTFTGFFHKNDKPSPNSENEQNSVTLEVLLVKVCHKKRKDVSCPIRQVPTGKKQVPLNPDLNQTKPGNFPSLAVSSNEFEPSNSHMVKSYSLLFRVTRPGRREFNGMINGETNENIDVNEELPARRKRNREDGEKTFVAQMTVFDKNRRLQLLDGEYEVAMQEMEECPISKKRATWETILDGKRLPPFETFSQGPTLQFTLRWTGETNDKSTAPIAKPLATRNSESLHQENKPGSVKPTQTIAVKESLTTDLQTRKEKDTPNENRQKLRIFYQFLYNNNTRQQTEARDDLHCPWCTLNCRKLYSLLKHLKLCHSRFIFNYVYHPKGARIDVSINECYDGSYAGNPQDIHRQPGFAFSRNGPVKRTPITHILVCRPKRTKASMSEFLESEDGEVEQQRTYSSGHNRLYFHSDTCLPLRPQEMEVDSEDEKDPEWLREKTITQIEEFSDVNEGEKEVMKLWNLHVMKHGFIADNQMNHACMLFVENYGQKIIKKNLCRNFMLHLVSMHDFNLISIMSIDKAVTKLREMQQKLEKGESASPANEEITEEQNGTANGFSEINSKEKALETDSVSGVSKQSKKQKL
Sequence of EZH1 (Q09028 whole entry partner): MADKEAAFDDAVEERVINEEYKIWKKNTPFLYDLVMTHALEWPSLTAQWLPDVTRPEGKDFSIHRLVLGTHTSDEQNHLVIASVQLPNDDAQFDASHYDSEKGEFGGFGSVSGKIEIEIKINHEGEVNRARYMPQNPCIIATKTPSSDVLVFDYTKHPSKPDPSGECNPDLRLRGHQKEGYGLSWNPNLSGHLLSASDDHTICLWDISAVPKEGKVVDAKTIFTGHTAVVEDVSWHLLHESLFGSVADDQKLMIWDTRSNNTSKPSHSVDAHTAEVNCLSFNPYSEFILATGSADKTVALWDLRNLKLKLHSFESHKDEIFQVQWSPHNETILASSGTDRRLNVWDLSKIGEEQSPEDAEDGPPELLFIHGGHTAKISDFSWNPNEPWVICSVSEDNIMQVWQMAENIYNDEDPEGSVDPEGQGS

Row | SMILES | Inhibition of enzyme activity of EZH1 (EZH1) | Viability of HTLV-1 infected cells vs DMSO group (HCT-4 cells) | GI50 (HCT-4 cells) | Yield of IL-10 from PBMC (HAM patient-derived PBMC) | Reduction in HTLV-1 pro-viral load [1] | Cases in which HTLV-1 pro-viral load in HAM patient's PBMC decreases [1]
1 | Cc1cc(C)c(CNC(=O)c2cc(Br)c3c(c2C)O[C@@](C)([C@H]2CC[C@H](N(C)C)CC2)O3)c(=O)[nH]1 [compound A, (2R)-7-bromo-2-[trans-4-(dimethylamino)cyclohexyl]-N-[(4,6-dimethyl-2-oxo-1,2-dihydropyridin-3-yl)methyl]-2,4-dimethyl-1,3-benzodioxole-5-carboxamide] | inhibit | significantly reduce the viability | 7.63 nM | dramatically increased | significant reduction in pro-viral load | 5 out of 8
2 | Cc1cc(C)c(CNC(=O)c2cc(Cl)c3c(c2C)O[C@@](C)([C@H]2CC[C@H](N(C)C)CC2)O3)c(=O)[nH]1 [compound B, (2R)-7-chloro-2-[trans-4-(dimethylamino)cyclohexyl]-N-[(4,6-dimethyl-2-oxo-1,2-dihydropyridin-3-yl)methyl]-2,4-dimethyl-1,3-benzodioxole-5-carboxamide] | inhibit | significantly reduce the viability | 5.92 nM | dramatically increased | significant reduction in pro-viral load | 5 out of 8
